The source of these data is ChEMBL document CHEMBL1133974, “Synthesis and in vitro evaluation of a series of diketopiperazine inhibitors of plasminogen activator inhibitor-1” (Bioorg Med Chem Lett, 2001).

A value given as a limit tells only on which side of the number the result lay.

T1 sequence (P05121 whole entry): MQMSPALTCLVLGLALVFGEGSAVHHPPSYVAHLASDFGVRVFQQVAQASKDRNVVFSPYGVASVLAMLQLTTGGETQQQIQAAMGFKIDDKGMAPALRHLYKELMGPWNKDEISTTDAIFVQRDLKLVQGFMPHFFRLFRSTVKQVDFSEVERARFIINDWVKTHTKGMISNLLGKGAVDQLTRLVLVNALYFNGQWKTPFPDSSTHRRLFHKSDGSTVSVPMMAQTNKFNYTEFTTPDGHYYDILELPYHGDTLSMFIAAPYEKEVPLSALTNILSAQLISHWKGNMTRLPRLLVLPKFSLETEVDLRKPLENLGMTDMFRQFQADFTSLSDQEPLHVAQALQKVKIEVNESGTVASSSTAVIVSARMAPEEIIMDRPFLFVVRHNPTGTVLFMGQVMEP

One test addresses T1, Plasminogen activator inhibitor 1 (Homo sapiens, UniProt P05121). As to the kind of experiment: Inhibitory activity of compound against Plasminogen activator inhibitor-1.
As a reminder, the IC50 is the point on the concentration scale where inhibition reaches its midpoint. Read a high IC50 as weaker potency in that assay. Molecule `CN(C)CCSc1ccc(/C=c2\[nH]c(=O)/c(=C/c3ccccc3)[nH]c2=O)s1` gave a half-inhibitory concentration (IC50) of 3.5 µM.
In turn, `O=C(O)CCCCOc1ccc(/C=c2\[nH]c(=O)/c(=C/c3ccc(NC(=O)c4cccs4)cc3)[nH]c2=O)cc1` gave an IC50 of 1.75 µM.
Same read-out and setting: to `CN(C)CCOc1ccc(/C=c2\[nH]c(=O)/c(=C/c3ccccc3)[nH]c2=O)s1` belongs more than 25 µM; to `Cc1ccc(/C=c2\[nH]c(=O)/c(=C/c3ccc(SCCN(C)C)s3)[nH]c2=O)cc1`, 12.4 µM.
On to `CN(C)CCSc1ccc(/C=c2\[nH]c(=O)/c(=C/c3ccc(Br)cc3)[nH]c2=O)s1`, for which 13.1 µM corresponded to half-maximal inhibition (IC50).
The same measure, in the same setting: the value for `CN(C)CCSc1ccc(/C=c2\[nH]c(=O)/c(=C/c3ccc(C#N)cc3)[nH]c2=O)s1` was more than 25 µM; that for `CN(C)CCSc1ccc(/C=c2\[nH]c(=O)/c(=C/c3ccc(NC(=O)c4ccccc4)cc3)[nH]c2=O)s1` was 6.1 µM.
Regarding `O=C(O)CCCCOc1ccc(/C=c2\[nH]c(=O)/c(=C/c3ccccc3)[nH]c2=O)cc1`, the IC50 amounted to 15 µM.
Same read-out and setting: the value for `COC(=O)CCCCCCC(=O)Nc1ccc(/C=c2\[nH]c(=O)/c(=C/c3ccc(NC(=O)c4cccs4)cc3)[nH]c2=O)cc1` was 4.77 µM.
Turning to `O=C(O)CCCCCCCOc1ccc(/C=c2\[nH]c(=O)/c(=C/c3ccc(NC(=O)c4cccs4)cc3)[nH]c2=O)cc1`, 0.2 µM corresponded to half-maximal inhibition (IC50).
On the same count and under the same terms, the value for `O=C(O)COc1ccc(/C=c2\[nH]c(=O)/c(=C/c3ccccc3)[nH]c2=O)cc1` was more than 25 µM; that for `COC(=O)CCCCCCCOc1ccc(/C=c2\[nH]c(=O)/c(=C/c3ccc(NC(=O)c4cccs4)cc3)[nH]c2=O)cc1` was 1.93 µM.
Still for that read-out and setting: to `CN(C)CCSc1ccc(/C=c2\[nH]c(=O)/c(=C/c3ccc(N(C)C)cc3)[nH]c2=O)s1` belongs more than 25 µM.
Consider `CN(C)CCSc1ccc(/C=c2\[nH]c(=O)/c(=C/c3ccc(NC(=O)c4cccs4)cc3)[nH]c2=O)s1`, for which the IC50 was 3.1 µM.
Still for that read-out and setting: the value for `CN(C)CC[S+]([O-])c1ccc(/C=c2\[nH]c(=O)/c(=C/c3ccccc3)[nH]c2=O)s1` (stereo unspecified) was more than 25 µM; that for `COC(=O)c1ccc(/C=c2\[nH]c(=O)/c(=C/c3ccc(SCCN(C)C)s3)[nH]c2=O)cc1` was 17.7 µM; that for `CN(C)CCSc1ccc(/C=c2\[nH]c(=O)/c(=C/c3ccccc3Br)[nH]c2=O)s1` was more than 25 µM.
On the same count and under the same terms, the value for `O=C(O)CCCCCCC(=O)Nc1ccc(/C=c2\[nH]c(=O)/c(=C/c3ccc(NC(=O)c4cccs4)cc3)[nH]c2=O)cc1` was 0.52 µM.
The molecule `COc1ccc(/C=c2\[nH]c(=O)/c(=C/c3ccc(SCCN(C)C)s3)[nH]c2=O)cc1` displayed an IC50 of 10.9 µM.
Same read-out and setting: to `CN(C)CCSc1ccc(/C=c2\[nH]c(=O)/c(=C/c3cccc(Cl)c3)[nH]c2=O)s1` belongs more than 25 µM; to `O=C(O)CCCCCCCCC(=O)Nc1ccc(/C=c2\[nH]c(=O)/c(=C/c3ccc(NC(=O)c4cccs4)cc3)[nH]c2=O)cc1`, 0.39 µM; to `O=C(O)CCCOc1ccc(/C=c2\[nH]c(=O)/c(=C/c3ccccc3)[nH]c2=O)cc1`, 20 µM.
For the molecule `CCN(CC)CCSc1ccc(/C=c2\[nH]c(=O)/c(=C/c3ccccc3)[nH]c2=O)s1`, the half-inhibitory concentration (IC50) was more than 25 µM.
Same read-out and setting: the value for `O=C(O)c1ccc(/C=c2\[nH]c(=O)/c(=C/c3ccccc3)[nH]c2=O)cc1` was more than 25 µM.

In another test the target is T1, Plasminogen activator inhibitor 1. As to the kind of experiment: Tissue plasminogen activator generation in plasmin was evaluated by measuring the ability to inhibit Plasminogen activator inhibitor-1 through complex assay.
`O=C(O)CCCCCCCOc1ccc(/C=c2\[nH]c(=O)/c(=C/c3ccc(NC(=O)c4cccs4)cc3)[nH]c2=O)cc1`: the IC50 was 0.51 µM.

A further test shares this target. The experiment in a line: Tissue plasminogen activator generation in plasmin was evaluated by measuring the ability to inhibit Plasminogen activator inhibitor-1 through fibrin plate assay.
The molecule `O=C(O)CCCCCCCOc1ccc(/C=c2\[nH]c(=O)/c(=C/c3ccc(NC(=O)c4cccs4)cc3)[nH]c2=O)cc1` gave an IC50 of 0.26 µM.
